This note sets out measurements from patent US20240383856A1 (Zedira GmbH, priority 2021, published 2024).

Structures are written as SMILES.

Data set [1] concerns the target T1, recombinant human transglutaminase 2 (Homo sapiens, UniProt P21980).
T1 construct: purchased Zedira T022
T1 sequence (P21980 1-687): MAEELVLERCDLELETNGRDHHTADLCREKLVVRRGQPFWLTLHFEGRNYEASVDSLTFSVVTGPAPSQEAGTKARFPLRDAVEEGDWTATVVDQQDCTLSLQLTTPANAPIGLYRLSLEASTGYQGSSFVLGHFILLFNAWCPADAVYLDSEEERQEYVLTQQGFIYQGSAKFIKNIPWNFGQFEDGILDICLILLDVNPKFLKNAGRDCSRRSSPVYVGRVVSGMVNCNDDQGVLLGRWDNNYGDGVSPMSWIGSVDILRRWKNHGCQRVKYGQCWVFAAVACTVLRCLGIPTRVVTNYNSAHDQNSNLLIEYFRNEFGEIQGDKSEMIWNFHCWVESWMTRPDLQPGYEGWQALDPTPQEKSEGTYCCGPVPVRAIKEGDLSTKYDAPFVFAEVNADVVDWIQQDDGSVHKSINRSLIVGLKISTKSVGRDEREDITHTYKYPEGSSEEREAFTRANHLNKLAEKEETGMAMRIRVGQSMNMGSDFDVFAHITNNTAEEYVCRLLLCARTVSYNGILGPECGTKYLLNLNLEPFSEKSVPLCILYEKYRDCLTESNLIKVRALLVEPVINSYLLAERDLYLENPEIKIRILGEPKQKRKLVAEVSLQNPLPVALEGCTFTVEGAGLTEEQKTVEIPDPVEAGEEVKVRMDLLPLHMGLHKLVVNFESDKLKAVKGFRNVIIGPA
Nature of the data set: Transglutaminase assay (DCC-assay): incorporation of dansylcadaverine into dimethylcasein. Format: biochemical. To be noted: recombinant human TG2 10 nM; dansylcadaverine incorporation into dimethylcasein; read-out: IC50 TG2. On the procedure: To illustrate the advantage of branched alkyl moieties over aromatic moieties, we refer to reference compounds Ref. 2 (ZED1227, U.S. Pat. No. 9,434,763 B2) and Ref. 3 (A8, ZED1047). Inhibition data were determined using the classical fluorescent transamidation assay (dansylcadaverine incorporation into methylated casein, DCC-assay) as described [Buchold, C.; Hils, M.; Gerlach, U.; Weber, J.; Pelzer, C.; Heil, A.; Aeschlimann, D.; Pasternack, R. Features of ZED1227: The First-In-Class Tissue Transglutaminase Inhibitor Undergoing Clinical Evaluation for the Treatment of Celiac Disease. Cells 2022, 11, 1667. https://doi.org/10.3390/cells11101667]. Casein is one of the best known high molecular weight (24 kDa) protein substrates for transglutaminases. Please note, the IC50 value of Ref. 3 (A8) published in U.S. Pat. No. 9,434,763 B2 cannot be compared to the present data, relying on a fluorogenic isopeptidase assay.
To this extent, inhibition data were determined using the classical fluorescent transamidation assay (dansylcadaverine incorporation into methylated casein, DCC-assay) as described in Büchold et al. [Büchold, C.; Hils, M.; Gerlach, U.; Weber, J.; Pelzer, C.; Heil, A.; Aeschlimann, D.; Pasternack, R. Features of ZED1227: The First-In-Class Tissue Transglutaminase Inhibitor Undergoing Clinical Evaluation for the Treatment of Celiac Disease. Cells 2022, 11, 1667. https://doi.org/10.3390/cells11101667]. Casein is one of the best known high molecular weight (24 kDa) protein substrates for transglutaminases. Inhibition data of the inventive compounds was compared with inhibition of compounds disclosed in U.S. Pat. No. 9,434,763 B2, particularly, compound A8, which is denoted herein as Reference 3. It is noteworthy that the IC50 values of compounds A8 published in U.S. Pat. No. 9,434,763 B2 and E16 from U.S. Pat. No. 11,072,634 B2 cannot be compared to the present data, relying on a fluorogenic isopeptidase assay.
For the determination of potency of inhibitors against tissue transglutaminase, the incorporation of dansylcadaverine into dimethylcasein (Zedira product T036, Lorand et al., Anal Biochem, 1971, 44:221-31) was measured using recombinant human transglutaminase 2 (Zedira Product T022).
The tissue transglutaminase is diluted in buffer (50 mM Tris-HCl, 7.5 mM CaCl2), 150 mM NaCl, pH=7.4). The final concentration of TG2 in the assay is 10 nM.
A 10 mM inhibitor stock solution is prepared in DMSO, and from this a serial 1:2-fold dilution series is prepared also in DMSO. Each of the initial dilutions is subsequently diluted 1:50-fold with buffer (50 mM Tris-HCl, 7.5 mM CaCl2), 150 mM NaCl, pH=7.4) to yield the final working dilutions containing 2% (v/v) DMSO.
15 μl of inhibitor working dilution are added per well of a 96 well microtiter plate. As control, 15 μl of a 2% (v/v) DMSO solution prepared using the buffer mentioned above are added per well.
Immediately before starting the assay, 600 μl transglutaminase working solution are added to 11.4 ml assay buffer (50 mM Tris-HCl, 10 mM CaCl2), 10 mM glutathione, 2.5% glycerol, 16.7 µM dansylcadaverine, 4 uM N,N-dimethylcasein, 200 mM NaCl, pH=8.0). 285 μl of this reaction mix are added per well containing the inhibitor.
Increase in fluorescence is measured using λex=330 nm and λem=500 nm at 37° C. for 30 min. A slope of the increase in fluorescence between 20 and 30 min is calculated for determination of the IC50 value (inhibitor concentration at which 50% of the initial activity is blocked).
Analysis of enzymatic activity is performed by calculation of the slope of an increase in fluorescence intensity. IC50 values are calculated by plotting the enzymatic activity (as percentage from control containing 2% DMSO instead of inhibitor) against the inhibitor concentration. IC50 is defined as the inhibitor concentration blocking 50% of initial enzyme activity.

Data set [2] can be described thus: logD by shake flask method (octanol / PBS pH 7.4, HPLC). The data set is classed as physicochemical. Particulars: octanol / PBS pH 7.4, shake flask. On the procedure:
In order to classify the inventive compounds according to their lipophilicity, LogD values (distribution coefficient) were determined by means of the well-established shake flask method, measuring the partition of a compound between an octanol and phosphate-buffered saline (PBS, pH 7.4) by HPLC.
The LogD is pH dependent and is a “predictor” for in-vivo properties. LogD combines lipophilicity (intrinsic structural property of the molecule, logP) and ionizability (pKa). Compounds with a moderate lipophilicity (LogD values from 0 to 3) are usually advantaged for oral absorption, being in balance between solubility and permeability. However, sophisticated formulation of a compound might improve oral bioavailability for highly lipophilic compounds.

Data set [3] in a line: Caco-2 permeability assay (CacoReady kit). The data set is classed as in vitro ADME. Particulars: human, Caco-2, Caco-2 barrier, CacoReady kit; above 1×10^−6 cm/s classified as permeable. On the procedure: Permeability coefficients (Papp values) were obtained from Caco-2 barrier studies predicting oral/intestinal bioavailability of the tested compounds. The assays were performed by using CacoReady™ ready-to-use kits from ReadyCell according to the manufacturers protocol.
Background: Passage across Caco-2 layers is used to estimate intestinal permeability.

For orientation: IC50 means the point on the concentration scale where inhibition reaches its midpoint. As a reminder, the logD is the decadic logarithm of the distribution of all forms, ionised or not, between an organic phase and buffer at a given pH. High values mean a more lipophilic compound, low ones a more hydrophilic compound. As a reminder, the Papp is the rate of passage across a membrane or cell layer, normalised by area and donor concentration. With `CNC(=O)C(=O)CC[C@H](NC(=O)c1oc2ccccc2c1C)C(=O)Nc1cccn(CC(=O)NCC23CC4CC(CC(C4)C2)C3)c1=O` [II-87, (S)-N1-(1-(2-(1-adamantylmethylamino)-2-oxoethyl)-2-oxo-1,2-dihydropyridin-3-yl)-N6-methyl-2-(3-methylbenzofuran-2-carboxamido)-5-oxohexanediamide], in data set [1], the IC50 fell in the range of 40 to 400 nM. The molecule also registered a logD in data set [2] of 3 to 5. In data set [3], this molecule registered a Papp of 1 to 10 ×10⁻⁶ cm/s.

Regarding `CNC(=O)C(=O)CC[C@H](NC(=O)c1cnc(NC(C)=O)s1)C(=O)Nc1cccn(CC(=O)NC23CC(C2)C3)c1=O` [II-191, (S)-2-(2-acetamidothiazole-5-carboxamido)-N1-(1-(2-(bicyclo[1.1.1]pentan-1-ylamino)-2-oxoethyl)-2-oxo-1,2-dihydropyridin-3-yl)-N6-methyl-5-oxohexanediamide], the IC50 in data set [1] lay in the range of 400 to 2500 nM. The molecule further returned a pH-dependent lipophilicity (logD) in data set [2] of under 1. Also, the Papp in data set [3] was under 1 ×10⁻⁶ cm/s.

On to `CNC(=O)C(=O)CC[C@H](NC(=O)c1cc(Br)sc1Br)C(=O)Nc1cccn(CC(=O)NC2C3CC4CC(C3)CC2C4)c1=O` (stereo partly drawn) [II-29, (S)-2-(2,5-dibromothiophene-3-carboxamido)-N1-(1-(2-(2-adamantylamino)-2-oxoethyl)-2-oxo-1,2-dihydropyridin-3-yl)-N6-methyl-5-oxohexanediamide], for which the IC50 in data set [1] is under 40 nM. For the same molecule, in data set [2], the logD was in the range of 3 to 5. The Papp in data set [3] was in the range of 1 to 10 ×10⁻⁶ cm/s.

`CNC(=O)C(=O)CC[C@H](NC(=O)c1oc2ccccc2c1C)C(=O)Nc1cccn(CC(=O)N[C@@H]2C[C@H]3CC[C@@H]2C3)c1=O` [II-94, (S)-N1-(1-(2-((1R,2R,4S)-bicyclo[2.2.1]heptan-2-ylamino)-2-oxoethyl)-2-oxo-1,2-dihydropyridin-3-yl)-N6-methyl-2-(3-methylbenzofuran-2-carboxamido)-5-oxohexanediamide]: the IC50 in data set [1] is under 40 nM. Moreover, the logD in data set [2] is 1 to 3. Further, the Papp in data set [3] lay within 1 to 10 ×10⁻⁶ cm/s.

As to `CNC(=O)C(=O)CC[C@H](NC(=O)c1ncns1)C(=O)Nc1cccn(CC(=O)NC23CC(C2)C3)c1=O` [II-199, (S)-N1-(1-(2-(bicyclo[1.1.1]pentan-1-ylamino)-2-oxoethyl)-2-oxo-1,2-dihydropyridin-3-yl)-N6-methyl-5-oxo-2-(1,2,4-thiadiazole-5-carboxamido)hexanediamide], the IC50 in data set [1] was in the range of 40 to 400 nM. The molecule further came in with a logD in data set [2] of under 1. Besides, the Papp in data set [3] is under 1 ×10⁻⁶ cm/s.

As to `CNC(=O)C(=O)CC[C@H](NC(=O)c1cc2c(F)c(F)ccc2[nH]1)C(=O)Nc1cccn(CC(=O)NC2C3CC4CC(C3)CC2C4)c1=O` (stereo partly drawn) [II-10, (S)-2-(4,5-difluoro-1H-indole-2-carboxamido)-N1-(1-(2-(2-adamantylamino)-2-oxoethyl)-2-oxo-1,2-dihydropyridin-3-yl)-N6-methyl-5-oxohexanediamide], in data set [1], the IC50 was under 40 nM. The molecule also had a logD in data set [2] of 3 to 5. The Papp in data set [3] was under 1 ×10⁻⁶ cm/s.

As to `CNC(=O)C(=O)CC[C@H](NC(=O)c1cc(C#N)cn1C)C(=O)Nc1cccn(CCCC23CC4CC(CC(C4)C2)C3)c1=O` [II-165], the IC50 in data set [1] lay within 400 to 2500 nM. Further, the logD in data set [2] lay in the range of 3 to 5. Moreover, the Papp in data set [3] was 1 to 10 ×10⁻⁶ cm/s.

As for `NC(=O)C(=O)CC[C@H](NC(=O)c1cc(Cl)sc1Cl)C(=O)Nc1cccn(CC(=O)NC2C3CC4CC(C3)CC2C4)c1=O` (stereo partly drawn) [II-125, (S)-2-(2,5-dichlorothiophene-3-carboxamido)-N1-(1-(2-(2-adamantylamino)-2-oxoethyl)-2-oxo-1,2-dihydropyridin-3-yl)-5-oxohexanediamide], the IC50 in data set [1] was in the range of 40 to 400 nM. Besides, the pH-dependent lipophilicity (logD) in data set [2] fell in the range of 1 to 3. The Papp in data set [3] was 1 to 10 ×10⁻⁶ cm/s.

Consider `CNC(=O)C(=O)CC[C@H](NC(=O)c1cccnn1)C(=O)Nc1cccn(CC(=O)NC2C3CC4CC(C3)CC2C4)c1=O` (stereo partly drawn) [II-114, (S)-N1-(1-(2-(2-adamantylamino)-2-oxoethyl)-2-oxo-1,2-dihydropyridin-3-yl)-N6-methyl-5-oxo-2-(pyridazine-3-carboxamido)hexanediamide], for which the IC50 in data set [1] was 40 to 400 nM. Moreover, the logD in data set [2] is under 1. The Papp in data set [3] was under 1 ×10⁻⁶ cm/s.

Consider `CNC(=O)C(=O)CC[C@H](NC(=O)c1oc2ccccc2c1C)C(=O)Nc1cccn(CC(=O)NC23CCC(CC2)C3)c1=O` [II-95, (S)-N1-(1-(2-(bicyclo[2.2.1]heptan-1-ylamino)-2-oxoethyl)-2-oxo-1,2-dihydropyridin-3-yl)-N6-methyl-2-(3-methylbenzofuran-2-carboxamido)-5-oxohexanediamide], for which the IC50 in data set [1] lay in the range of 40 to 400 nM. Moreover, the log distribution coefficient (logD) in data set [2] lay within 1 to 3. In addition, in data set [3], the Papp was in the range of 1 to 10 ×10⁻⁶ cm/s.

Regarding `CNC(=O)C(=O)CC[C@H](NC(=O)c1cnc(C(C)C)o1)C(=O)Nc1cccn(CC(=O)NC23CCC(C2)C3)c1=O` [II-170, (S)-N1-(1-(2-(bicyclo[2.1.1]hexan-1-ylamino)-2-oxoethyl)-2-oxo-1,2-dihydropyridin-3-yl)-2-(2-isopropyloxazole-5-carboxamido)-N6-methyl-5-oxohexanediamide], the IC50 in data set [1] is 40 to 400 nM. This molecule came in with a logD in data set [2] of under 1. In addition, the Papp in data set [3] is 1 to 10 ×10⁻⁶ cm/s.

`CNC(=O)C(=O)CC[C@H](NC(=O)c1c(I)cnn1C)C(=O)Nc1cccn(CC(=O)NC2C3CC4CC(C3)CC2C4)c1=O` (stereo partly drawn) [II-143, (S)-2-(4-iodo-1-methyl-1H-pyrazole-5-carboxamido)-N1-(1-(2-(2-adamantylamino)-2-oxoethyl)-2-oxo-1,2-dihydropyridin-3-yl)-N6-methyl-5-oxohexanediamide]: the IC50 in data set [1] was in the range of 400 to 2500 nM. Also, in data set [2], the logD was under 1. In data set [3], this molecule gave a Papp of under 1 ×10⁻⁶ cm/s.
